In brackets after ≈: the same amount, converted by molar mass. Several values for one entry are separate records, joined by “and”; a condition that tells them apart may be missing. Identical values can stand only once. Like-named read-outs stand apart in the source and are kept apart here.
What was measured:
[1] = Cellular toxicity assay (MTS) on PBMC; format: cell-based, human; conditions: human, peripheral blood mononuclear cells (PBMC); 24 hours incubation, MTS reagent; read-out: PBMC's TC50
Method: Compounds of the invention (see Table 6) were assayed for cellular toxicity as follows. Whole blood was drawn from a volunteer, and the red cells were separated from the buffy coat cells by centrifugation over ficoll-paque. The resulting peripheral blood mononuclear cells (PBMC) were collected from the interface and washed extensively with PBS by centrifugation to remove platelets and cellular debris. The cells were then plated in 96-well tissue culture plates at a density of 5×10^5 cells per mL at 200 μL per well. After an hour incubation, the candidate compounds were added at the appropriate concentrations diluted from DMSO stocks into assay buffer (RPMI medium supplemented with 10% FCS). The cells were incubated at 37° C., 100% humidity and 5% CO2 for 24 hours at which time MTS reagent was added per the manufacturer's (Promega) instructions. After 2-3 hours incubation the optical density of the wells was read on a spectrophotometer. […] The data are evaluated using equation 2 as described in Example 17, where bacterial cells are replaced by PBMC cells in the measurements. The data describes the toxicity of these compounds to a representative human cell population (PBMC's).

[2] = tested on: S. pyogenes; assay: Bacterial inhibition assay (growth, OD readout); format: cell-based; conditions: CAMHB-3% LHB medium, 35° C., 16-20 hours
Method: (§1) Compounds of the invention (see Table 5) were assayed for their ability to inhibit bacterial growth. Compounds were diluted from 10 mM DMSO stocks to 3 mM and 1 mM in DMSO. The compounds were further diluted from these stocks into saline for 200, 120, and 20 μM stocks. Control antibiotics were diluted similarly. Overnight cultures of bacteria were made in the following manner. N. gonorrhea was streaked onto a chocolate agar plate and incubated at 35° C./5% CO2. Rather than make an overnight culture of S. pyogenes, a loopful of S. pyogenes from a blood plate or a stock plate was used the following day for direct cell suspension.
(§2) On the following day bacteria were prepared by dilution into saline with O.D. […] readings taken to determine the concentration of the bacteria. CFUs (colony forming units) were determined using the formula: CFU/mL=OD625×(1.5×10^8 CFU/mL/OD McFarland std)×dilution. The four bacterial cultures were diluted initially to 5.5×10^7 CFU/mL. The bacteria were then further diluted into medium to 5.5×10^5 CFU/mL for S. pyogenes and 5.5×10^6 CFU/mL for N. gonorrhea. S. pyogenes and N. gonorrhea were grown in CAMHB-3% LHB medium. The bacteria were added one per plate at 200 μL per well. Compounds were added in 10 μL aliquots for final concentrations of 10, 3, and 1 μM in duplicate. Control antibiotics, penicillin for S. pyogenes and ciprofloxacin for N. gonorrhea, were added from 0.8 mg/ml to 0.003 mg/ml. Plates were incubated at 35° C. with O2 for 16-20 hours for S. pyogenes, and read at OD665 in a Victor2 plate reader. Plates were incubated at 35° C. with 5% CO2 for 24 hours for N. gonorrhea at which time 40 μL of MTS reagent is added per well and incubated for 1 hour in same incubator. The plates were read at OD490. Compounds were tested at 1 μM, 3 μM, and 10 μM concentrations. The results, which are expressed as a percentage of the control, were calculated using equation 2. In this equation, O.D. is optical density; (O.D. compounds+bacteria) is the optical density observed for bacteria grown in the presence of a compound of the invention; (O.D. blank) is the optical density in the absence of bacteria; and (O.D. bacteria) is the optical density observed for bacteria growing uninhibited. Other RNase P inhibitors may be tested similarly using any bacteria of interest. [formula]

[3] = molecular target: N. gonorrhea RNase P (M1 RNA + C5 protein) (Neisseria gonorrhoeae, UniProt Q5F4W3); assay: Time resolved fluorescence (TRF) RNase P inhibition assay; format: biochemical; conditions: 30 min enzyme reaction, ptGLN substrate
Description: The ability of compounds of the invention to inhibit RNase P enzymes can be assessed by standard techniques. For example, the cleavage of ptRNA^Gln by the enzyme N. Gonorrhea RNase P, can be monitored in the presence and absence of a candidate compound as described in the Example 15. The progress of the RNase P-mediated cleavage reaction can be assessed by measuring the […] hybridized to the cleaved substrate.
Time Resolved Fluorescence RNase P Inhibition Assay
96-well Nunc MaxiSorp FluoroNunc plates were coated with 50 μl/well of 1 μg/ml of streptavidin in base buffer (150 mM KCl, 5 mM MgCl2, 50 mM Tris, pH 7.6) and incubated overnight. The plates were washed using TRF.96 protocol, and then blocked with 150 μl of a 1 mg/ml BSA solution in base buffer and incubated with shaking for sixty minutes. The plates were then washed twice with base buffer plus 0.01% Tween20. 50 μl of 40 nM T17-bt (biotinylated DNA oligonucleotide complementary to the RNaseP substrate leader sequence used to capture intact RNaseP substrate) was then added to all wells, and the plates were incubated with shaking for 1 hr.
A 0.4 nM solution of N. gonorrhea M1 RNA was made from a 1 μM stock solution. A 0.5 nM solution of N. gonorrhea C5 protein is made by diluting a 10 μM stock. ΔUL-ptGLN UTP-bt (10 μM stock) was diluted into PA buffer for a concentration of 40 nM.
Compounds were serially diluted in DMSO from 20 mM stocks to 6, 2, 0.6, 0.2, and 0.06 mM dilutions. These titrations were then diluted (2 μl to 100) in PA buffer, and 12.5 μl of each concentration was added in duplicate to a 96-well V-bottom polypropylene plate. The highest concentration was put in row G and the lowest in row B. Rows A & H received 12.5 μl of DMSO/PA buffer.
The enzyme reaction was initiated in the V-bottom polypropylene plates containing compound dilutions by adding 12.5 μl of the N. gonorrhea M1 solution to rows A-G. PA buffer was added to row H. 12.5 μl of the C5 solution was added similarly to the M1 solutions. 12.5 μl of the substrate solution was then added to all wells. The plates were incubated for 30 minutes at which time 12.5 μl of stop buffer was added to all wells. (Stop buffer: 500 μg/ml polyC/50 nM SA-Eu in 335 mM MgCl2 PA buffer).
The T17-biotin-coated plate was washed three times, and 37.5 μl of 75 mM MgCl2 PA buffer was added to each well. After 30 minutes incubation with the stop buffer, 12.5 μl from all of the enzyme reaction wells was transferred to the T17 plates. The plates were then incubated for 1.5 hr at room temperature with shaking. The plates were washed three times and 40 μl of Delfia enhancement solution (Wallac Oy) was added to all wells. The plates were then read on the Victor 2 plate reader.

[4] = molecular target: T1, N. gonorrhoeae RNase P holoenzyme (Neisseria gonorrhoeae, UniProt Q5F4W3); assay: biochemical; conditions: 32P-labelled pGln substrate, room temperature; read-out: N. gonorrhoeae Gel assay IC50(μM) (Example 16)
T1 sequence (Q5F4W3 1-121): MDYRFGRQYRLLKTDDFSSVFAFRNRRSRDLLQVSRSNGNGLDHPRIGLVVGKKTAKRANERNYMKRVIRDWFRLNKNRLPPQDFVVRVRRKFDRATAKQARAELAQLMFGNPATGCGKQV
Method: RNase P Inhibition Polyacrylamide Gel Assay
The substrate, the precursor of tRNA^Gln, (pGln), from Synechocystis (Pascual and Vioque, 1999), was synthesized in vitro from the corresponding cDNA by T7 RNA polymerase in the presence of α^32P-GTP. Each control RNase P reaction of 10 μl contained 50 mM Tris-HCl (pH 7.8), 10 mM MgCl2, 100 mM NH4Cl, 1 mM dithiothreitol, and 0.4-1.0 pmol pGln substrate, radiolabeled to a specific activity of 1000-10,000 cpm/pmol. The reaction mixture, containing 0.1-1 nM holoenzyme, was incubated for 5-60 min at room temperature (18-24° C.), and the reaction was terminated by addition of an equal volume of 40 mM EDTA/8 M urea. The samples were electrophoresed in denaturing 8% polyacrylamide gels. The activity was quantified by exposure of the gel to a phosphorimaging screen. For test reactions that require the addition of compounds, the RNA subunits were pre-incubated with compound for 10 min at room temperature in the presence of buffer, followed by addition of the protein subunit. After a further 10 minutes of incubation, the radiolabeled substrate was added, and the reaction initiated. Products were analyzed as just described. The IC50 was the concentration of compound that was required to inhibit RNase P activity by 50%.

[5] = tested on: N. gonorrhoeae; assay: Bacterial inhibition assay (growth, MTS readout); format: cell-based; conditions: CAMHB-3% LHB medium, 35° C., 5% CO2, 24 hours
Method: as §1, §2

[6] = read-out: N. gonorrhoeae TRF IC50(μM) (Example 15)

Compound: CC(=NNC(=N)N)c1ccc(NC(=O)c2ccc(C(C)=NNC(=N)N)cc2)cc1 [MES 10948, Bisguanylhydrazone of 4-acetyl-N-(4-acetylphenyl)benzamide]
- CC50 at 24 h [1]: > 100 µM
- MIC ([2]; Streptococcus pyogenes): 0.3 µM (≈ 0.118 µg/mL)
- IC50 [3, 6]: 3 µM
- IC50 [4]: 2 µM and 1 µM
- MIC ([5]; Neisseria gonorrhoeae): 3 µM (≈ 1.18 µg/mL)

Compound: N=C1/C(=C/c2ccc(-c3ccc(C(=O)O)cc3)o2)C(=O)N=C2SC(Cc3cccs3)=NN12 [MES 110410]
- MIC [2]: >100 µM
- IC50 [3, 6]: 15 µM
- MIC [5]: 30 µM (≈ 13.9 µg/mL)

Compound: CC(=NNC(=N)N)c1ccc(NC(=O)Nc2ccc(C(C)=NNC(=N)N)cc2)cc1 [MES 10950, Bisguanylhydrazone of N,N′-bis(4-acetylphenyl)urea]
- CC50 at 24 h [1]: > 100 µM
- MIC ([2]; Streptococcus pyogenes): 10 µM (≈ 4.08 µg/mL)
- IC50 [3, 6]: 6 µM
- IC50 [4]: 7 µM
- MIC ([5]; Neisseria gonorrhoeae): 30 µM (≈ 12.3 µg/mL)

Compound: CC(=NNC(=N)N)c1cccc(NC(=O)[C@@H]2CCCN2C(=O)c2cccc(C(C)=NNC(=N)N)c2)c1 [MES 10926, Bisguanylhydrazone of (S)-1-(3-acetylbenzoyl)-N-(3-acetylphenyl) prolinamide]
- CC50 at 24 h [1]: > 100 µM
- MIC ([2]; Streptococcus pyogenes): 30 µM (≈ 14.7 µg/mL)
- IC50 [3, 6]: 43 µM
- IC50 [4]: 100 µM
- MIC ([5]; Neisseria gonorrhoeae): 80 µM (≈ 39.2 µg/mL)

Compound: N=C1/C(=C/c2ccc(-c3ccc(C(=O)O)cc3)o2)C(=O)N=C2SC(c3ccccc3)=NN12 [MES 110392]
- MIC [2]: >100 µM
- IC50 [3, 6]: 2 µM
- MIC [5]: 100 µM (≈ 44.2 µg/mL)

Compound: CC(=NNC(=N)N)c1cccc(NC(=O)c2cccc(-c3ccccc3)c2)c1 [MES 10915, Guanylhydrazone of N-(3-acetylphenyl)-3-biphenylcarboxamide]
- IC50 ([3]; N. gonorrhoeae TRF IC50(μM) (Example 15)): 16 µM
- IC50 [4]: 10 µM

Compound: CC(=NNC(=N)N)c1cccc(NC(=O)[C@H](CCc2ccccc2)NC(=O)c2cccc(I)c2)c1 [MES 10914, Guanylhydrazone of (S)-1-(3-iodobenzoyl)-N-(3-acetylphenyl) homophenyl-alaninamide]
- IC50 [3, 6]: 6 µM

Compound: CC(=O)Oc1cccc2ccc(/C=C/c3ccc(C(=O)O)cc3)nc12 [MES 110394]
- S. pyogenes MIC(μM) [2]: >100− μM
- IC50 [3, 6]: 9 µM
- MIC [5]: 10 µM (≈ 3.33 µg/mL)

Compound: CC(=NNC(=N)N)c1cccc(NC(=O)Nc2cccc(C(C)=NNC(=N)N)c2)c1 [MES 10949, Bisguanylhydrazone of N,N-bis(3-acetylphenyl)urea]
- CC50 at 24 h [1]: > 100 µM
- MIC ([2]; Streptococcus pyogenes): 30 µM (≈ 12.3 µg/mL)
- IC50 [3, 6]: 6 µM
- IC50 [4]: 30 µM
- MIC ([5]; Neisseria gonorrhoeae): 100 µM (≈ 40.8 µg/mL)

Compound: CC(=NNC(=N)N)c1cccc(NC(=O)c2ccc(-c3ccccc3)cc2)c1 [MES 10938, Guanylhydrazone of N-(3-acetylphenyl)-4-biphenylcarboxamide]
- IC50 [3, 6]: 80 µM

Compound: CC(=NNC(=N)N)c1cccc(NC(=O)[C@H](Cc2ccc(-c3ccccc3)cc2)NC(=O)c2ccccc2)c1 [MES 10910, Guanylhydrazone of (S)-1-benzoyl-N-(3-acetylphenyl) biphenylalaninamide]
- IC50 [3, 6]: 7 µM

Compound: CC(=NNC(=N)N)c1cccc(NC(=O)[C@@H]2Cc3ccccc3CN2C(=O)c2cccc(C(C)=NNC(=N)N)c2)c1 [MES 10848, Bisguanylhydrazone of (S)-2-(3-acetylbenzoyl)-N-(3-acetylphenyl)tetrahydro-isoquinoline-3-carboxamide]
- CC50 at 24 h [1]: > 100 µM
- MIC ([2]; Streptococcus pyogenes): 10 µM (≈ 5.53 µg/mL)
- IC50 [3, 6]: 3 µM
- IC50 [4]: 6 µM
- MIC ([5]; Neisseria gonorrhoeae): 100 µM (≈ 55.3 µg/mL)

Compound: O=C(O)c1ccc(-c2ccc(/C=C3\S/C(=N\c4ccccc4)N(c4ccccc4)C3=O)o2)cc1 [MES 110430]
- MIC [2]: >100 µM
- IC50 [3, 6]: 7 µM
- MIC [5]: 30 µM (≈ 14 µg/mL)

Compound: O=C(O)c1ccc(-c2nc(-c3ccc(-c4nc(-c5ccc(C(=O)O)cc5)[nH]c4-c4ccccc4)cc3)c(-c3ccccc3)[nH]2)cc1 [MES 110417]
- MIC [2]: >100 µM
- IC50 [3, 6]: 10 µM
- MIC [5]: 30 µM (≈ 18.1 µg/mL)

Compound: CC(=NNC(=N)N)c1ccc(C(=O)Nc2cccc(C(C)=NNC(=N)N)c2)cc1 [MES 10648, Bisguanylhydrazone of 4-acetyl-N-(3-acetylphenyl)benzamide]
- CC50 at 24 h [1]: > 100 µM
- MIC ([2]; Streptococcus pyogenes): 1 µM (≈ 0.393 µg/mL)
- IC50 [3, 6]: 5 µM
- IC50 [4]: 2 µM
- MIC ([5]; Neisseria gonorrhoeae): 10 µM (≈ 3.93 µg/mL)

Source: US20050187409A1, “Inhibitors of RNase P proteins as antibacterial compounds” (priority 2003, published 2005)
